Measured values published in article PMC5786788, “Antimicrobial Octapeptin C4 Analogues Active against Cryptococcus Species” (Antimicrobial Agents and Chemotherapy, 2018).
Values after ≈ are worked out from the molar mass of the structure shown. Where two headings read alike, the source gives them in different places.

Key:
[1] = system: C. neoformans var. neoformans; experiment: microbe, parasite or virus in culture; conditions: Cryptococcus neoformans
Procedure: (§1) The MICs of the yeast strains for PMB, PME, and octapeptin C4 and its derivatives were determined in accordance with CLSI M27-A2 guidelines using YNB (Becton Dickinson, USA) medium supplemented with 10 mM ammonium sulfate and 2% glucose, a final inoculum concentration of 1.5 × 10^3 to 2.0 × 10^3 cells/ml, and incubation at 35°C for 72 h ([39]). […] The MICs for PMB, PME, and octapeptin C4 for A. fumigatus were determined in accordance with the CLSI M38-A2 guidelines ([40]) using synthetic RPMI 1640 medium (with glutamine, without bicarbonate and with phenol red; Life Technologies, USA). The final inoculum concentration was 0.4 × 10^4 to 5 × 10^4 cells/ml, with incubation at 35°C for 48 h. […] All assays were completed in triplicate. Fluconazole was used as a positive control where the MIC was determined at both 50% growth (in accordance with CLSI M27-A2 guidelines) and when there was a “no visible growth” reading.

[2] = system: C. neoformans var. gattii; experiment: microbe, parasite or virus in culture
Procedure: as §1

OC(Cn1cncn1)(Cn1cncn1)c1ccc(F)cc1F [Fluconazole, fluconazole]
MIC ([1]; read-out: MIC-2, strain WM 09.112 (USA), 50% fungal growth): 3.13 µg/mL (≈ 10.2 µM)
MIC ([1]; read-out: MIC-2, strain WM 10.119 (Australia), 50% fungal growth): 3.13 µg/mL (≈ 10.2 µM)
MIC ([1]; read-out: MIC-2, strain WM 629 (Australia), 50% fungal growth): 3.13 µg/mL (≈ 10.2 µM)
MIC ([1]; read-out: MIC-2, strain WM 1706 (Argentina), 50% fungal growth): 6.25 µg/mL (≈ 20.4 µM)
MIC ([1]; read-out: MIC-2, strain WM 1740 (Chile), 50% fungal growth): 3.13 µg/mL (≈ 10.2 µM)
MIC ([1]; read-out: MIC-2, strain WM 2207 (USA, environmental), 50% fungal growth): 12.5 µg/mL (≈ 40.8 µM)
MIC ([1]; read-out: MIC-2, strain WM 2242 (USA), 50% fungal growth): 1.56 µg/mL (≈ 5.09 µM)
MIC ([1]; read-out: MIC-2, strain WM 2530 (USA), 50% fungal growth): 3.13 µg/mL (≈ 10.2 µM)
MIC ([1]; strain WM 01.127 (USA), no visible growth): 12.5 µg/mL (≈ 40.8 µM)
MIC ([1]; strain WM 02.141 (Russia), no visible growth): 6.25 µg/mL (≈ 20.4 µM)
MIC ([1]; strain WM 02.142 (Russia), no visible growth): 12.5 µg/mL (≈ 40.8 µM)
MIC ([1]; strain WM 02.143 (Russia), no visible growth): 12.5 µg/mL (≈ 40.8 µM)
MIC ([1]; strain WM 02.37 (Canada), no visible growth): 25 µg/mL (≈ 81.6 µM)
MIC ([1]; strain WM 02.52 (Canada), no visible growth): 6.25 µg/mL (≈ 20.4 µM)
MIC ([1]; strain WM 04.168 (Chile), no visible growth): 12.5 µg/mL (≈ 40.8 µM)
MIC ([1]; strain WM 04.171 (Thailand, environmental), no visible growth): 6.25 µg/mL (≈ 20.4 µM)
MIC ([1]; strain WM 05.467 (Brazil, environmental), no visible growth): 12.5 µg/mL (≈ 40.8 µM)
MIC ([1]; strain WM 05.515 (Peru), no visible growth): 6.25 µg/mL (≈ 20.4 µM)
MIC ([1]; strain WM 09.109 (Italy, environmental), no visible growth): 6.25 µg/mL (≈ 20.4 µM)
MIC ([1]; strain WM 09.112 (USA), no visible growth): 12.5 µg/mL (≈ 40.8 µM)
MIC ([1]; strain WM 10.119 (Australia), no visible growth): 6.25 µg/mL (≈ 20.4 µM)
MIC ([1]; strain WM 629 (Australia), no visible growth): 6.25 µg/mL (≈ 20.4 µM)
MIC ([1]; strain WM 1706 (Argentina), no visible growth): 12.5 µg/mL (≈ 40.8 µM)
MIC ([1]; strain WM 1740 (Chile), no visible growth): 6.25 µg/mL (≈ 20.4 µM)
MIC ([1]; strain WM 2207 (USA, environmental), no visible growth): 25 µg/mL (≈ 81.6 µM)
MIC ([1]; strain WM 2242 (USA), no visible growth): 3.13 µg/mL (≈ 10.2 µM)
MIC ([1]; strain WM 2530 (USA), no visible growth): 6.25 µg/mL (≈ 20.4 µM)
MIC ([2]; Cryptococcus neoformans, ATCC24066, read-out: MIC-2, strain ATCC 24066 (NIH 18), 50% fungal growth): 1.56 µg/mL (≈ 5.09 µM)
MIC ([2]; Cryptococcus neoformans, ATCC24066, strain ATCC 24066 (NIH 18), no visible growth): 3.13 µg/mL (≈ 10.2 µM)
MIC ([2]; Cryptococcus neoformans, ATCC32269, read-out: MIC-2, strain ATCC 32269, 50% fungal growth): 0.78 µg/mL (≈ 2.55 µM)
MIC ([2]; Cryptococcus neoformans, ATCC32269, strain ATCC 32269, no visible growth): 1.56 µg/mL (≈ 5.09 µM)
MIC ([2]; Cryptococcus neoformans, ATCC32608, read-out: MIC-2, strain ATCC 32608 (NIH 191), 50% fungal growth): 0.39 µg/mL (≈ 1.27 µM)
MIC ([2]; Cryptococcus neoformans, ATCC32608, strain ATCC 32608 (NIH 191), no visible growth): 0.78 µg/mL (≈ 2.55 µM)
MIC ([2]; Cryptococcus neoformans, ATCC32609, read-out: MIC-2, strain ATCC 32609 (NIH444), 50% fungal growth): 3.13 µg/mL (≈ 10.2 µM)
MIC ([2]; Cryptococcus neoformans, ATCC32609, strain ATCC 32609 (NIH444), no visible growth): 6.25 µg/mL (≈ 20.4 µM)
MIC ([2]; Cryptococcus neoformans, ATCC34878, read-out: MIC-2, strain ATCC 34878, 50% fungal growth): 3.13 µg/mL (≈ 10.2 µM)
MIC ([2]; Cryptococcus neoformans, ATCC34878, strain ATCC 34878, no visible growth): 6.25 µg/mL (≈ 20.4 µM)
MIC ([2]; Cryptococcus neoformans, ATCC34882, read-out: MIC-2, strain ATCC 34882, 50% fungal growth): 1.56 µg/mL (≈ 5.09 µM)
MIC ([2]; Cryptococcus neoformans, ATCC34882, strain ATCC 34882, no visible growth): 6.25 µg/mL (≈ 20.4 µM)
MIC ([2]; Cryptococcus neoformans, read-out: MIC-2, strain 93/980 (CSF France), 50% fungal growth): 1.56 µg/mL (≈ 5.09 µM)
MIC ([2]; Cryptococcus neoformans, read-out: MIC-2, strain B5742 (VGIV CSF India), 50% fungal growth): 3.13 µg/mL (≈ 10.2 µM)
MIC ([2]; Cryptococcus neoformans, read-out: MIC-2, strain R266 (Vancouver Island), 50% fungal growth): 6.25 µg/mL (≈ 20.4 µM)
MIC ([2]; Cryptococcus neoformans, read-out: MIC-2, strain R267 (Vancouver Island), 50% fungal growth): 25 µg/mL (≈ 81.6 µM)
MIC ([2]; Cryptococcus neoformans, read-out: MIC-2, strain R268 (Vancouver Island), 50% fungal growth): 0.78 µg/mL (≈ 2.55 µM)
MIC ([2]; Cryptococcus neoformans, read-out: MIC-2, strain R269 (Vancouver Island), 50% fungal growth): 3.13 µg/mL (≈ 10.2 µM)
MIC ([2]; Cryptococcus neoformans, read-out: MIC-2, strain R270 (Vancouver Island), 50% fungal growth): 3.13 µg/mL (≈ 10.2 µM)
MIC ([2]; Cryptococcus neoformans, strain R266 (Vancouver Island), no visible growth): 12.5 µg/mL (≈ 40.8 µM)
MIC ([2]; Cryptococcus neoformans, strain R267 (Vancouver Island), no visible growth): < 25 µg/mL
MIC ([2]; Cryptococcus neoformans, strain R268 (Vancouver Island), no visible growth): 1.56 µg/mL (≈ 5.09 µM)
MIC ([2]; Cryptococcus neoformans, strain R269 (Vancouver Island), no visible growth): 12.5 µg/mL (≈ 40.8 µM)
MIC ([2]; Cryptococcus neoformans, strain R270 (Vancouver Island), no visible growth): 6.25 µg/mL (≈ 20.4 µM)
MIC ([2]; read-out: MIC-2, strain 96/1120-1 (Brain HIV2 France), 50% fungal growth): 3.13 µg/mL (≈ 10.2 µM)
MIC ([2]; read-out: MIC-2, strain 96/1120-2 (CSF HIV2 France), 50% fungal growth): 6.25 µg/mL (≈ 20.4 µM)
MIC ([2]; read-out: MIC-2, strain B5748 (VGIV HIV India), 50% fungal growth): 3.13 µg/mL (≈ 10.2 µM)
MIC ([2]; strain 96/1120-1 (Brain HIV2 France), no visible growth): 25 µg/mL (≈ 81.6 µM)
MIC ([2]; strain 96/1120-2 (CSF HIV2 France), no visible growth): 25 µg/mL (≈ 81.6 µM)
MIC ([2]; strain B5748 (VGIV HIV India), no visible growth): 12.5 µg/mL (≈ 40.8 µM)
